Article PMC4052943 (BioMed Research International, 2014)
Like-named read-outs stand apart in the source and are kept apart here.

Key:
[1] = tested on: A549 cells; experiment: MTT cell proliferation assay; type: cell-based; settings: Homo sapiens, A549, 48 h, read-out: inhibition of cells (antiproliferative activity, MTT)
Procedure: (§1) Inhibition of cell proliferation by PC and EA was measured with the MTT assay. Human lung cancer A549 and H1299 cells were obtained from ATCC (Manassas, VA, USA) and maintained in DMEM supplemented with 10% fetal calf serum (FCS), 1% penicillin/streptomycin. Cells were plated in 96-well culture plates (5 × 10^3 cells/well). After 24 h incubation, cells were treated with vehicle alone (0.1% DMSO) and PC and EA (12.5–200 μg/mL) extracts for 48 h. Then, the culture medium was replaced by 100 μL of fresh medium containing 0.5 mg/mL MTT, and the plates were incubated for 2 h at 37°C. The medium was then removed and was replaced by 200 μL of DMSO to solubilize the converted purple dye. The absorbance was measured with a spectrophotometer microplate reader at a wavelength of 570 nm.

[2] = tested on: H1299 cells; experiment: MTT cell proliferation assay; type: cell-based; settings: Homo sapiens, NCI-H1299, 48 h, read-out: inhibition of cells (antiproliferative activity, MTT)
Procedure: as §1

[3] = tested on: Salmonella typhimurium TA97a; experiment: Ames antimutagenicity assay (preincubation); settings: for inhibition at 50 µM / inhibition at 100 µM / inhibition at 250 µM / inhibition at 500 µM: Salmonella enterica, TYPHIMURIUM;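 for all read-outs here: compound and mutagen preincubated together 30 min at 37 °C before adding bacteria, then plated on minimal glucose agar for 48 h and His+ revertant colonies counted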
Procedure: (§2) In the preincubation experiment, test compounds and mutagen, each having a volume of 0.1 mL of varying concentrations, were preincubated at 37°C for 30 min and then 0.1 mL of 1 × 10^7 CFU/mL density of the bacterial culture was added, followed by the addition of 2.5 mL of top agar at 45°C (containing 0.5% NaCl and 0.6% agar) supplemented with 0.5 mM histidine-biotin. […] The combined solutions were vortexed and poured onto minimal glucose plates (40% glucose solution and Vogel Bonner medium). The plates were incubated at 37°C for 48 h and the numbers of histidine-independent revertants colonies were scored.
(§3) Survival of the bacteria was routinely monitored for each experiment. Parallel controls were run with compounds alone at all concentrations to test the possible toxicity. The concentrations of the test samples for investigating the antimutagenicity were 50, 100, 200, and 500 μM. […] All the test samples and mutagens were dissolved in DMSO (final conc., 0.01%). […] Plates were set up in triplicate for each concentration and the entire experiment was repeated three times. Inhibition of mutagenicity was expressed as percentage decrease of reverse mutation and calculated as (1) Percent inhibition=[(a−b)/(a−c)]×100, where a = number of histidine revertants induced by mutagen, b = number of histidine revertants induced by mutagen in the presence of test compound, and c = number of revertants induced in negative control.

[4] = tested on: Salmonella typhimurium TA98; experiment: Ames antimutagenicity assay (preincubation); settings: Salmonella enterica, TYPHIMURIUM;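 note: test compound and mutagen preincubated 30 min at 37°C before adding bacteria, then His+ revertant colonies counted after 48 h plating, inhibition relative to mutagen-only versus negative-control revertants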
Procedure: as §2, §3

O=C1O[C@H]2[C@@H]3OC(=O)c4cc(O)c(O)c(O)c4-c4c(O)c(O)c5oc(=O)c6c(c(O)c(O)c7oc(=O)c4c5c76)-c4c(cc(O)c(O)c4O)C(=O)OC[C@H]3OC(O)[C@@H]2OC(=O)c2cc(O)c(O)c(O)c2-c2c1cc(O)c(O)c2O (mixture of isomers) [Punicalagin]
inhibition at 50 µg/mL [1]: 34%
inhibition at 50 µg/mL [2]: 57%
inhibition at 50 µM ([3]; read-out: % inhibition of mutagenicity, TA 97a, 50 μM + 2AF, S9): 15.7%
inhibition at 50 µM ([3]; read-out: % inhibition of mutagenicity, TA 97a, 50 μM + BP, S9): 15.1%
inhibition at 50 µM ([3]; read-out: % inhibition of mutagenicity, TA 97a, 50 μM + MMS, no S9): 10.2%
inhibition at 50 µM ([3]; read-out: % inhibition of mutagenicity, TA 97a, 50 μM + NaN3, no S9): 10.2%
inhibition at 100 µM ([3]; read-out: % inhibition of mutagenicity, TA 97a, 100 μM + 2AF, S9): 37.1%
inhibition at 100 µM ([3]; read-out: % inhibition of mutagenicity, TA 97a, 100 μM + BP, S9): 34.3%
inhibition at 100 µM ([3]; read-out: % inhibition of mutagenicity, TA 97a, 100 μM + MMS, no S9): 19.9%
inhibition at 100 µM ([3]; read-out: % inhibition of mutagenicity, TA 97a, 100 μM + NaN3, no S9): 34.2%
inhibition at 250 µM ([3]; read-out: % inhibition of mutagenicity, TA 97a, 250 μM + BP, S9): 53.5%
inhibition at 250 µM ([3]; read-out: % inhibition of mutagenicity, TA 97a, 250 μM + MMS, no S9): 42.4%
inhibition at 250 µM ([3]; read-out: % inhibition of mutagenicity, TA 97a, 250 μM + NaN3, no S9): 54.9%
inhibition at 500 µM ([3]; read-out: % inhibition of mutagenicity, TA 97a, 500 μM + 2AF, S9): 78.5%
inhibition at 500 µM ([3]; read-out: % inhibition of mutagenicity, TA 97a, 500 μM + BP, S9): 76.7%
inhibition at 500 µM ([3]; read-out: % inhibition of mutagenicity, TA 97a, 500 μM + MMS, no S9): 72%
inhibition at 500 µM ([3]; read-out: % inhibition of mutagenicity, TA 97a, 500 μM + NaN3, no S9): 74.4%
Number of His+ revertants colonies/plate ([3]; TA 97a, 50 μM + 2AF, S9): 304.7 ± 19.8 colonies/plate
Number of His+ revertants colonies/plate ([3]; TA 97a, 50 μM + BP, S9): 645.3 ± 28.7 colonies/plate
Number of His+ revertants colonies/plate ([3]; TA 97a, 50 μM + MMS, no S9): 418.3 ± 11.7 colonies/plate
Number of His+ revertants colonies/plate ([3]; TA 97a, 50 μM + NaN3, no S9): 244.3 ± 6.7 colonies/plate
Number of His+ revertants colonies/plate ([3]; TA 97a, 100 μM + 2AF, S9): 270.3 ± 10.1 colonies/plate
Number of His+ revertants colonies/plate ([3]; TA 97a, 100 μM + BP, S9): 538.3 ± 28.9 colonies/plate
Number of His+ revertants colonies/plate ([3]; TA 97a, 100 μM + MMS, no S9): 390.7 ± 10.2 colonies/plate
Number of His+ revertants colonies/plate ([3]; TA 97a, 100 μM + NaN3, no S9): 221.0 ± 7.1 colonies/plate
Number of His+ revertants colonies/plate ([3]; TA 97a, 250 μM + BP, S9): 431.0 ± 18.4 colonies/plate
Number of His+ revertants colonies/plate ([3]; TA 97a, 250 μM + MMS, no S9): 326.0 ± 7.8 colonies/plate
Number of His+ revertants colonies/plate ([3]; TA 97a, 250 μM + NaN3, no S9): 202.3 ± 8.7 colonies/plate
Number of His+ revertants colonies/plate ([3]; TA 97a, 500 μM + 2AF, S9): 220.0 ± 9.3 colonies/plate
Number of His+ revertants colonies/plate ([3]; TA 97a, 500 μM + BP, S9): 316.0 ± 17.6 colonies/plate
Number of His+ revertants colonies/plate ([3]; TA 97a, 500 μM + MMS, no S9): 251.0 ± 9.0 colonies/plate
% inhibition of mutagenicity ([3]; TA 97a, 500 μM + MMS, no S9, 500 µM): 72.1%
Number of His+ revertants colonies/plate ([3]; TA 97a, 500 μM + MMS, no S9, listed as PC): 251 colonies/plate
Number of His+ revertants colonies/plate ([3]; TA 97a, 500 μM + NaN3, no S9): 195.0 ± 10.8 colonies/plate
inhibition at 50 µM ([4]; read-out: % inhibition of mutagenicity, TA 98, 50 μM + 2AF, S9): 20.5%
inhibition at 50 µM ([4]; read-out: % inhibition of mutagenicity, TA 98, 50 μM + BP, S9): 22.1%
inhibition at 50 µM ([4]; read-out: % inhibition of mutagenicity, TA 98, 50 μM + MMS, no S9): 29.4%
inhibition at 100 µM ([4]; read-out: % inhibition of mutagenicity, TA 98, 100 μM + 2AF, S9): 37.5%
inhibition at 100 µM ([4]; read-out: % inhibition of mutagenicity, TA 98, 100 μM + BP, S9): 46.6%
inhibition at 100 µM ([4]; read-out: % inhibition of mutagenicity, TA 98, 100 μM + MMS, no S9): 46.3%
inhibition at 100 µM ([4]; read-out: % inhibition of mutagenicity, TA 98, 100 μM + NaN3, no S9): 30%
inhibition at 250 µM ([4]; read-out: % inhibition of mutagenicity, TA 98, 250 μM + BP, S9): 74.8%
inhibition at 250 µM ([4]; read-out: % inhibition of mutagenicity, TA 98, 250 μM + MMS, no S9): 59.2%
inhibition at 250 µM ([4]; read-out: % inhibition of mutagenicity, TA 98, 250 μM + NaN3, no S9): 52.2%
inhibition at 500 µM ([4]; read-out: % inhibition of mutagenicity, TA 98, 500 μM + 2AF, S9): 81.4%
inhibition at 500 µM ([4]; read-out: % inhibition of mutagenicity, TA 98, 500 μM + BP, S9): 78.8%
